Results reported in patent publication EP4653431A1, “PYRAZOLE DERIVATIVE, AND PHARMACEUTICALLY ACCEPTABLE SALT, STEREOISOMER, PHARMACEUTICAL COMPOSITION AND USE THEREOF” (Starg (Wuhan) Pharmaceutical Technology Co., Ltd, priority 2023, dated 2024).
Structures can show the parent of a compound that is named as a salt. Where two headings read alike, the source gives them in different places.

Columns and labels:
[1] = target: T1, CDK1/cyclin B1 (Homo sapiens, UniProt P06493); assay: In vitro CDK1/cyclin B1 enzyme activity assay (TR-FRET); type: biochemical
T1 construct: purchased Carna Biosciences
Description: CDK1/cyclin B1 was purchased from Carna Biosciences. Ulight-4E-BP1 peptide, Eu-anti-phospho-tyrosine antibody, and 1X detection buffer were purchased from PerkinElmer. High-purity ATP was purchased from Promega. EDTA was purchased from Sigma. Nivo multimode plate reader (PerkinElmer) was used.
Preparation of Kinase Buffer Solution: The kinase buffer solution consisted 50 mM HEPES, 1 mM EDTA, 10 mM MgCl2, and 0.01% Brij-35, with pH of 7.4.
The stop solution was prepared by mixing 100 µL of 1 M EDTA stock solution with […] of 1X detection buffer solution and 1725 µL of distilled water.
The enzyme, Ulight-4E-BP1 peptide, ATP, and the inhibitor were diluted using the kinase buffer solution.
The Eu-anti-phospho-tyrosine antibody was diluted to a concentration of 8 nM/L using the detection buffer solution.
The final concentration of DMSO was 4%, and the experiment was set up with duplicate wells. […] The reaction system was incubated at 25 °C for 60 minutes. After the reaction, 5 µL of the stop solution was added to each well, and further reacted at 25 °C for 5 minutes to terminate the reaction. Then 5 µL of Eu-anti-phospho-tyrosine antibody dilution was added to each well, and the mixture was incubated at 25 °C for 60 minutes.
The IC50 value was obtained by fitting the data to a four-parameter curve (using log(inhibitor) vs. response -- Variable slope model in GraphPad Prism).

[2] = tested on: OVCAR-3 cells; assay: In vitro OVCAR-3 cell viability assay (CellTiter-Glo); type: cell-based; details: Homo sapiens, OVCAR-3, 168 h, 7 days incubation
Description: (§1) 1640 medium, fetal bovine serum, and penicillin/streptomycin antibiotics were purchased from Wisent. CellTiter-Glo (cell viability chemiluminescence assay reagent) was purchased from Promega. The OVCAR-3 cell line was purchased from Nanjing Cobioer Biosciences Co., Ltd. Envision multimode plate reader (PerkinElmer) was used.
OVCAR-3 cells were seeded into a white 384-well plate, with 40 µL of cell suspension containing 300 OVCAR-3 cells per well. The cell plate was incubated overnight in a CO2 incubator.
(§2) The test compound was serially diluted 5-fold using a multichannel pipette to the 8th concentration, i.e., from 2000 µM to 0.00512 µM. The experiment was set up with duplicate wells. 78 µL of culture medium was added to an intermediate plate, and 2 µL per well of the gradient-diluted compound was transferred to the corresponding position in the intermediate plate. After mixing, 10 µL per well of the mixture was transferred to the cell plate. The concentration range of the compound transferred to the cell plate was from 10 µM to 0.026 nM. The cell plate was incubated in a CO2 incubator for 7 days. Another cell plate was prepared, and the signal value was read on the day of compound addition to serve as the maximum value (Max in the equation below) for data analysis. 10 µL per well of CellTiter-Glo reagent was added to the cell plate, and the cell plate was incubated at room temperature for 10 minutes to stabilize the luminescence signal. The signal was read using the multimode plate reader.
10 µL per well of CellTiter-Glo reagent was added to the cell plate, and the cell plate was incubated at room temperature for 10 minutes to stabilize the luminescence signal. The signal was read using the multimode plate reader.
(§3) The raw data were converted to inhibition rates using the equation (Sample-Min)/(Max-Min)×100%. The IC50 value was obtained by fitting the data to a four-parameter curve (using log(inhibitor) vs. response -- Variable slope model in GraphPad Prism). Table 1 provides the inhibitory activity of the compounds of the present application against OVCAR-3 cell proliferation.

[3] = tested on: T-47D cells; assay: In vitro T-47D cell viability assay (CellTiter-Glo); type: cell-based; details: Homo sapiens, T47D, 168 h, 7 days incubation
Description: as §1, with “T-47D” for “OVCAR-3”
T-47D cells were seeded into a white 384-well plate, with 40 µL of cell suspension containing 300 T-47D cells per well. The cell plate was incubated overnight in a CO2 incubator.
as §2, with “using the Envision multimode plate” for “using the multimode plate”
10 µL per well of CellTiter-Glo reagent was added to the cell plate, and the cell plate was incubated at room temperature for 10 minutes to stabilize the luminescence signal. The signal was read using the Envision multimode plate reader.
as §3, with “T-47D” for “OVCAR-3”

[4] = CDK1/cyclin B1, 1 mM ATP, 60 min at 25 °C, Table 1, read-out: CDK1 IC50
[5] = exact values stated in the text below Table 1, read-out: IC50 against CDK1

T1 sequence (P06493 whole entry): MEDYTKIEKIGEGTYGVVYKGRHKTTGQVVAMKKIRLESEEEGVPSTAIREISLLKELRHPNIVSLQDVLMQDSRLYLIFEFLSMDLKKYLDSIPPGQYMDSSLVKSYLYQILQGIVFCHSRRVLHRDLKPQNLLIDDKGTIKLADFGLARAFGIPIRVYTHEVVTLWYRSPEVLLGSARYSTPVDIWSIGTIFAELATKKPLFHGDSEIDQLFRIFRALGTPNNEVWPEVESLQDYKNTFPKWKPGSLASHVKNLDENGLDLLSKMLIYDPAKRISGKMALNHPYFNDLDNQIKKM
T1 sequence (P14635 whole entry partner): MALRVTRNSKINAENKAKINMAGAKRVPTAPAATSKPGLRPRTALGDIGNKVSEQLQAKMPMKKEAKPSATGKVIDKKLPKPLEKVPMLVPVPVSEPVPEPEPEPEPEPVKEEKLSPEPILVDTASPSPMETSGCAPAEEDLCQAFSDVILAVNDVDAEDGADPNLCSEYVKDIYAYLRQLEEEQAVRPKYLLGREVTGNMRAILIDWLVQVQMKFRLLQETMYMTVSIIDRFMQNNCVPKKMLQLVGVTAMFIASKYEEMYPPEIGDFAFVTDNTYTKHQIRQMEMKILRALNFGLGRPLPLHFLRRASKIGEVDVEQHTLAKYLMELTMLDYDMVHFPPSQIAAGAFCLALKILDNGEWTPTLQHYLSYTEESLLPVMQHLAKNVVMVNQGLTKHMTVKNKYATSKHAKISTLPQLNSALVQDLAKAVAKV

SMILES	IC50 [1, 4]	IC50 [1, 5]	IC50 [2]	IC50 [3]
CONCc1nn2ccnc(Nc3cc([C@H]4CC[C@@H](OC(=O)NC(C)C)C4)[nH]n3)c2c1F [Compound 5]	> 1000 nM	1500 nM	309 nM	193 nM
CON(C)Cc1nn2ccnc(Nc3cc([C@H]4CC[C@@H](OC(=O)NC(C)C)C4)[nH]n3)c2c1F [Compound 6]	> 1000 nM	3490 nM	104 nM	384 nM
CON(C)Cc1nn2ccnc(Nc3cc([C@H]4CC[C@@H](OC(=O)NC(C)C)C4)[nH]n3)c2c1C [Formate salt of compound 2]	> 1000 nM	4080 nM	124 nM	465 nM
